Assay results: patent US12576093B2, “Pharmaceutical composition for subcutaneous administration” (MANNKIND CORPORATION, priority 2019, dated 2026)
“And” between values parts separate entries of the source, which are not always exact repeats. Identical values can stand only once.

Columns and labels:
[1] = oral; cited from earlier work
[2] = Pharmacokinetics after 24-hour subcutaneous infusion via fluid delivery device in male Beagle dogs (plasma, LC-MS/MS); conditions: for AUC(0-t): AUClast; for MRT last: MRTlast
[3] = Group 1, SC infusion 40 mg/animal, individual animals
[4] = SC infusion 76 mg/animal, individual animals
[5] = dogs, 40 mg/24 h and 76 mg/24 h SC infusion, both dosages
[6] = male, Beagle, dog, in vivo, sc, 3.21 mg/kg, Group 1, SC infusion, dose 3.21 mg/kg, mean
[7] = male, Beagle, dog, in vivo, sc, 5.45 mg/kg, Group 2, SC infusion, dose 5.45 mg/kg, mean
[8] = male, Beagle, dog, in vivo, sc, 40 mg, Group 1, SC infusion 40 mg/animal, mean
[9] = male, Beagle, dog, in vivo, sc, 40 mg/animal, Plasma concentration of CBD, Group 1, SC infusion 40 mg/animal, individual animals, BLOQ = below 1 ng/mL
[10] = male, Beagle, dog, in vivo, sc, 40 mg/animal, Plasma concentration of CBD, Group 1, SC infusion 40 mg/animal, mean (BLOQ samples excluded)
[11] = male, Beagle, dog, in vivo, sc, 76 mg, SC infusion 76 mg/animal, mean
[12] = male, Beagle, dog, in vivo, sc, 76 mg/animal, Plasma concentration of CBD, SC infusion 76 mg/animal, individual animals, BLOQ = below 1 ng/mL
[13] = male, Beagle, dog, in vivo, sc, 76 mg/animal, Plasma concentration of CBD, SC infusion 76 mg/animal, mean (BLOQ samples excluded)

Compound: C=C(C)[C@@H]1CCC(C)=C[C@H]1c1c(O)cc(CCCCC)cc1O [CBD, Cannabidiol]
- Fraction lost in the liver through the digestion [1]: approximately 94%
- AUClast [2, 3]: 363 ng·h/mL and 19.9 ng·h/mL and 127 ng·h/mL and 371 ng·h/mL
- Cmax [2, 3]: 14.2 ng/mL (2×) and 5.34 ng/mL and 5.83 ng/mL
- MRTlast [2, 3]: 26.0 h and 3.61 h and 16.3 h
- tmax [2, 3]: 30.0 hr (3×) and 3.00 hr
- Cmax ([2]; Group 1, SC infusion, dose 3.21 mg/kg, mean): 9.92 ng(mL
- Cmax ([2]; Group 2, SC infusion, dose 5.45 mg/kg, mean): 11.7 ng(mL
- AUClast [2, 4]: 217 ng·h/mL and 493 ng·h/mL and 129 ng·h/mL and 372 ng·h/mL
- Cmax [2, 4]: 10.3 ng/mL and 17.5 ng/mL and 5.24 ng/mL and 13.6 ng/mL
- MRTlast [2, 4]: 30.4 h and 18.9 h and 21.5 h
- tmax [2, 4]: 24.0 hr (2×) and 2.00 hr and 18.0 hr
- Absorption: first detection of CBD levels in blood [2, 5]: detected within an hour of the beginning of infusion
- Elimination: CBD detectability after end of infusion [2, 5]: still detectable 24 h after completion of fluid delivery device infusion
- Constancy of CBD concentration in the blood ([2]; group 1 (40 mg CBD/animal) and group 2 (76 mg CBD/animal), FIGS. 24 and 25): constant concentration of CBD in the blood with a minimal variation is reached after few hours
- AUC(0-t) [2, 6]: 221 ng·h/mL
- MRT last [2, 6]: 17.6 h
- tmax ([2]; male, Beagle, dog, in vivo, sc, 3.21 mg/kg, Tmax, Group 1, SC infusion, dose 3.21 mg/kg, mean): 23.3 h
- AUC(0-t) [2, 7]: 303 ng·h/mL
- MRT last [2, 7]: 24.3 h
- tmax ([2]; male, Beagle, dog, in vivo, sc, 5.45 mg/kg, Tmax, Group 2, SC infusion, dose 5.45 mg/kg, mean): 17 h
- AUC(0-t) [2, 8]: 221 ng·h/mL
- Cmax ([2]; male, Beagle, dog, in vivo, sc, 40 mg, Cmax, Group 1, SC infusion 40 mg/animal, mean): 9.92 ng/mL
- MRT last [2, 8]: 17.6 h
- tmax ([2]; male, Beagle, dog, in vivo, sc, 40 mg, tmax, Group 1, SC infusion 40 mg/animal, mean): 23.3 h
- concentration at 0.083 h ([2]; male, Beagle, dog, in vivo, sc, 40 mg/animal, Plasma concentration of CBD, Group 1, SC infusion 40 mg/animal, 0.083 hr, individual animals, BLOQ = below 1 ng/mL): 5.76 ng/mL
- concentration at 0.5 h ([2]; male, Beagle, dog, in vivo, sc, 40 mg/animal, Plasma concentration of CBD, Group 1, SC infusion 40 mg/animal, 0.5 hr, mean (BLOQ samples excluded)): 3.28 ng/mL
- concentration at 0.75 h [2, 9]: 2.83 ng/mL
- concentration at 0.75 h [2, 10]: 2.45 ng/mL
- concentration at 1 h [2, 10]: 2.63 ng/mL
- concentration at 2 h [2, 10]: 3.72 ng/mL
- concentration at 3 h [2, 10]: 7.36 ng/mL
- concentration at 4 h [2, 10]: 4.1 ng/mL
- concentration at 5 h [2, 10]: 5.11 ng/mL
- concentration at 6 h [2, 10]: 6.12 ng/mL
- concentration at 7 h [2, 10]: 5.53 ng/mL
- concentration at 8 h [2, 9]: 5.06 ng/mL
- concentration at 8 h [2, 10]: 6.03 ng/mL
- concentration at 10 h [2, 10]: 5.92 ng/mL
- concentration at 12 h [2, 9]: 4.47 ng/mL
- concentration at 12 h [2, 10]: 5.12 ng/mL
- concentration at 18 h [2, 9]: 3.31 ng/mL
- concentration at 24 h [2, 9]: 9.48 ng/mL
- concentration at 24 h [2, 10]: 8.82 ng/mL
- concentration at 30 h [2, 10]: 11.4 ng/mL
- concentration at 36 h ([2]; male, Beagle, dog, in vivo, sc, 40 mg/animal, Plasma concentration of CBD, Group 1, SC infusion 40 mg/animal, 36 hr, individual animals, BLOQ = below 1 ng/mL): 9.05 ng/mL
- concentration at 36 h ([2]; male, Beagle, dog, in vivo, sc, 40 mg/animal, Plasma concentration of CBD, Group 1, SC infusion 40 mg/animal, 36 hr, mean (BLOQ samples excluded)): 7.59 ng/mL
- concentration at 48 h ([2]; male, Beagle, dog, in vivo, sc, 40 mg/animal, Plasma concentration of CBD, Group 1, SC infusion 40 mg/animal, 48 hr, individual animals, BLOQ = below 1 ng/mL): 4.2 ng/mL
- concentration at 48 h ([2]; male, Beagle, dog, in vivo, sc, 40 mg/animal, Plasma concentration of CBD, Group 1, SC infusion 40 mg/animal, 48 hr, mean (BLOQ samples excluded)): 5.15 ng/mL
- AUC(0-t) [2, 11]: 303 ng·h/mL
- Cmax ([2]; male, Beagle, dog, in vivo, sc, 76 mg, Cmax, SC infusion 76 mg/animal, mean): 11.7 ng/mL
- MRT last ([2]; male, Beagle, dog, in vivo, sc, 76 mg, SC infusion 76 mg/animal, individual animals): 26.5 h
- MRT last [2, 11]: 24.3 h
- tmax ([2]; male, Beagle, dog, in vivo, sc, 76 mg, tmax, SC infusion 76 mg/animal, mean): 17 h
- concentration at 1 h [2, 12]: 3.73 ng/mL
- concentration at 1 h [2, 13]: 5.31 ng/mL
- concentration at 2 h [2, 12]: 3.69 ng/mL
- concentration at 2 h [2, 13]: 4.97 ng/mL
- concentration at 3 h [2, 13]: 4.38 ng/mL
- concentration at 4 h [2, 13]: 3.31 ng/mL
- concentration at 5 h [2, 12]: 2.42 ng/mL
- concentration at 5 h [2, 13]: 2.17 ng/mL
- concentration at 6 h [2, 13]: 5.35 ng/mL
- concentration at 7 h [2, 13]: 4.78 ng/mL
- concentration at 8 h [2, 13]: 5.14 ng/mL
- concentration at 10 h [2, 13]: 4.19 ng/mL
- concentration at 12 h [2, 13]: 6.03 ng/mL
- concentration at 18 h [2, 13]: 5.93 ng/mL
- concentration at 24 h [2, 13]: 9.68 ng/mL
- concentration at 30 h [2, 13]: 9.04 ng/mL
- concentration at 36 hr ([2]; male, Beagle, dog, in vivo, sc, 76 mg/animal, Plasma concentration of CBD, SC infusion 76 mg/animal, 36 hr, mean (BLOQ samples excluded)): 6.04 ng/mL
- concentration at 48 hr ([2]; male, Beagle, dog, in vivo, sc, 76 mg/animal, Plasma concentration of CBD, SC infusion 76 mg/animal, 48 hr, mean (BLOQ samples excluded)): 8.32 ng/mL
